Measured values published in ChEMBL document CHEMBL4507265 (2021).

Columns and labels:
[1] = biological target: Cyclin-dependent kinase 5 (Homo sapiens) (UniProt Q00535); settings: Compound concentration 1000.0 nM
[2] = biological target: Muscarinic acetylcholine receptor M5 (Homo sapiens) (UniProt P08912); settings: Compound concentration 10.0 uM
[3] = biological target: Myosin light chain kinase family member 4 (Homo sapiens) (UniProt Q86YV6); settings: Compound concentration 1000.0 nM
[4] = biological target: Serine/threonine-protein kinase Nek5 (Homo sapiens) (UniProt Q6P3R8); settings: Compound concentration 1000.0 nM
[5] = biological target: Serine/threonine-protein kinase PknB (Mycobacterium tuberculosis) (UniProt P9WI81); settings: Compound concentration 1000.0 nM
[6] = biological target: Hepatocyte growth factor receptor (Homo sapiens) (UniProt P08581); settings: Compound concentration 1000.0 nM
[7] = biological target: Cytoplasmic tyrosine-protein kinase BMX (Homo sapiens) (UniProt P51813); settings: Compound concentration 1000.0 nM
[8] = biological target: Dual specificity mitogen-activated protein kinase kinase 4 (Homo sapiens) (UniProt P45985); settings: Compound concentration 1000.0 nM
[9] = biological target: T1, Muscarinic acetylcholine receptor M2 (Homo sapiens) (UniProt P08172); settings: Compound concentration 10.0 uM
T1 sequence (whole entry): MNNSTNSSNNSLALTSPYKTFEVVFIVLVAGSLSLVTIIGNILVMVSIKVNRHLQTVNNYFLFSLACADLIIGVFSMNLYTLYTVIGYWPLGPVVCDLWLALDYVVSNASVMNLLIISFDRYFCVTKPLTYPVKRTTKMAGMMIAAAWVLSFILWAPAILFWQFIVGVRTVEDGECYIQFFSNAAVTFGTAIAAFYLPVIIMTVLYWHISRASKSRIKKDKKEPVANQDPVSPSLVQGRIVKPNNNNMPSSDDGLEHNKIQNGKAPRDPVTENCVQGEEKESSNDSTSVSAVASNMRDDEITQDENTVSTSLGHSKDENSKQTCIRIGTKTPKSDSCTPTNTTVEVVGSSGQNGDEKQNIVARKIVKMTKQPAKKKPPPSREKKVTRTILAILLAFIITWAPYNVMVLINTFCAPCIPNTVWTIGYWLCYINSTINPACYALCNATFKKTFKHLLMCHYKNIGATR

[10] = biological target: Calcium/calmodulin-dependent protein kinase type II subunit delta (Homo sapiens) (UniProt Q13557); settings: Compound concentration 1000.0 nM
[11] = test system: Hepatocyte growth factor receptor (Homo sapiens), P08581 [Y1235D]; settings: Compound concentration 1000.0 nM
[12] = biological target: Serine/threonine-protein kinase Sgk1 (Homo sapiens) (UniProt O00141); settings: Compound concentration 1000.0 nM
Chain of Serine/threonine-protein kinase Sgk1 (Homo sapiens) (O00141 whole entry): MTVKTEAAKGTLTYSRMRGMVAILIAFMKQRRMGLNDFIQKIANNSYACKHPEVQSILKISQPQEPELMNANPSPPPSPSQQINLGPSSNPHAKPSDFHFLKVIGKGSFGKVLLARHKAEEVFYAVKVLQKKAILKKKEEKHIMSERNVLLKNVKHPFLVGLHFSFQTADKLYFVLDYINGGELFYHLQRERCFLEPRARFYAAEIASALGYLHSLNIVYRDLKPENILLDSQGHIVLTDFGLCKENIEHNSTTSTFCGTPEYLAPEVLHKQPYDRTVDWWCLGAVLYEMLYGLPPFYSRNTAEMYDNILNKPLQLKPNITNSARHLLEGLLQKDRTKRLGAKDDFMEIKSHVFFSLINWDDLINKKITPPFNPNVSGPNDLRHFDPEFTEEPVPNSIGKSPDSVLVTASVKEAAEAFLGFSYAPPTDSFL

[13] = biological target: Rho-associated protein kinase 1 (Homo sapiens) (UniProt Q13464); settings: Compound concentration 1000.0 nM
Chain of Rho-associated protein kinase 1 (Homo sapiens) (Q13464 2-1354 limits assumed): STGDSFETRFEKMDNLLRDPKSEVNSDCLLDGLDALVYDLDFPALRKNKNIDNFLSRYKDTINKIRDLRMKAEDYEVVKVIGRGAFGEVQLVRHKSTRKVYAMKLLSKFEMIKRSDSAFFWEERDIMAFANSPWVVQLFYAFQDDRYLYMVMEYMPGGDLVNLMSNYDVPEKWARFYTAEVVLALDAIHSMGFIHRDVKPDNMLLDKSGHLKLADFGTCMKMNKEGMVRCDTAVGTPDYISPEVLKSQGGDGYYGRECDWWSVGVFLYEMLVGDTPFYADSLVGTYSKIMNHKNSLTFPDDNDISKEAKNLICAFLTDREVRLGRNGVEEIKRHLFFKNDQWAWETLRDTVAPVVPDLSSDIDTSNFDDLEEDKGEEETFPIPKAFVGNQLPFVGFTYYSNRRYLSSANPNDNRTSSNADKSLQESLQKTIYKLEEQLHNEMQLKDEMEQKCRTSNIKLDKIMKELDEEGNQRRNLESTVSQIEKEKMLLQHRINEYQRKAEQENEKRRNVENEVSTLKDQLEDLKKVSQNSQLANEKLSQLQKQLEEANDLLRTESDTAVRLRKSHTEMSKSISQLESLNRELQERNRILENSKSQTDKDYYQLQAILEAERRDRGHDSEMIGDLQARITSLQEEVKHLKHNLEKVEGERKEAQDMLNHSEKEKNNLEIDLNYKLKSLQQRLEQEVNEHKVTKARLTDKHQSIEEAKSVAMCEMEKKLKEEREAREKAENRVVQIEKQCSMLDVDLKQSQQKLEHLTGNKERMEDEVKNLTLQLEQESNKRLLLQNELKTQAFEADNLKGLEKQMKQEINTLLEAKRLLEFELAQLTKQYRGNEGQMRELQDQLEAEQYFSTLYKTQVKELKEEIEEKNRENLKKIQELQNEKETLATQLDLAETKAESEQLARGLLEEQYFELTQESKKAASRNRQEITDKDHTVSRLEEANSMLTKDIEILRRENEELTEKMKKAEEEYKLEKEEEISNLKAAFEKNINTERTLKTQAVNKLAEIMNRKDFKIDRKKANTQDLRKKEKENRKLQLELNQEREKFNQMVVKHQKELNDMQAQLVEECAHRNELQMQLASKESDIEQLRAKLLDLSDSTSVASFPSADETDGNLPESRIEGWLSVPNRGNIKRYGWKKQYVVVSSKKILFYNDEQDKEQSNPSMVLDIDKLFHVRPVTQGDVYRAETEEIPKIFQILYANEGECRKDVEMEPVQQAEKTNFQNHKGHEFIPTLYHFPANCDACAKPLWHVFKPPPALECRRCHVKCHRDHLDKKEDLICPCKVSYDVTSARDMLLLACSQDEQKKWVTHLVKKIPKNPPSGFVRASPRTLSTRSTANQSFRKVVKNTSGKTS

[14] = biological target: 5-hydroxytryptamine receptor 2C (Homo sapiens) (UniProt P28335); settings: Compound concentration 10.0 uM
[15] = biological target: Alpha-2B adrenergic receptor (Homo sapiens) (UniProt P18089); settings: Compound concentration 10.0 uM
[16] = biological target: Mitogen-activated protein kinase kinase kinase kinase 1 (Homo sapiens) (UniProt Q92918); settings: Compound concentration 1000.0 nM
[17] = biological target: Wee1-like protein kinase 2 (Homo sapiens) (UniProt P0C1S8); settings: Compound concentration 1000.0 nM
[18] = biological target: Mitogen-activated protein kinase kinase kinase 20 (Homo sapiens) (UniProt Q9NYL2); settings: Compound concentration 1000.0 nM
[19] = test system: Tyrosine-protein kinase ABL1 (Homo sapiens), P00519 [F317L]; settings: Compound concentration 1000.0 nM
[20] = biological target: Serine/threonine-protein kinase 16 (Homo sapiens) (UniProt O75716); settings: Compound concentration 1000.0 nM
Chain of Serine/threonine-protein kinase 16 (Homo sapiens) (O75716 whole entry): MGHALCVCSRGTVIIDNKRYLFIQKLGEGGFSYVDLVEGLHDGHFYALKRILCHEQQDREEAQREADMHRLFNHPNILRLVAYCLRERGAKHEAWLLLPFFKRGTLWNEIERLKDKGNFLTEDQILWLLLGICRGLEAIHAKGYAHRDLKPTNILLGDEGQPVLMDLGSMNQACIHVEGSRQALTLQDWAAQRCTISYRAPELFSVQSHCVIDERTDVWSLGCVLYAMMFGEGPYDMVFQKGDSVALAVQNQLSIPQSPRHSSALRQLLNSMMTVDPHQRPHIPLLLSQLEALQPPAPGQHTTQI

[21] = biological target: Tyrosine-protein kinase CSK (Homo sapiens) (UniProt P41240); settings: Compound concentration 1000.0 nM
[22] = biological target: Macrophage colony-stimulating factor 1 receptor (Homo sapiens) (UniProt P07333); settings: Compound concentration 1000.0 nM
Chain of Macrophage colony-stimulating factor 1 receptor (Homo sapiens) (P07333 whole entry): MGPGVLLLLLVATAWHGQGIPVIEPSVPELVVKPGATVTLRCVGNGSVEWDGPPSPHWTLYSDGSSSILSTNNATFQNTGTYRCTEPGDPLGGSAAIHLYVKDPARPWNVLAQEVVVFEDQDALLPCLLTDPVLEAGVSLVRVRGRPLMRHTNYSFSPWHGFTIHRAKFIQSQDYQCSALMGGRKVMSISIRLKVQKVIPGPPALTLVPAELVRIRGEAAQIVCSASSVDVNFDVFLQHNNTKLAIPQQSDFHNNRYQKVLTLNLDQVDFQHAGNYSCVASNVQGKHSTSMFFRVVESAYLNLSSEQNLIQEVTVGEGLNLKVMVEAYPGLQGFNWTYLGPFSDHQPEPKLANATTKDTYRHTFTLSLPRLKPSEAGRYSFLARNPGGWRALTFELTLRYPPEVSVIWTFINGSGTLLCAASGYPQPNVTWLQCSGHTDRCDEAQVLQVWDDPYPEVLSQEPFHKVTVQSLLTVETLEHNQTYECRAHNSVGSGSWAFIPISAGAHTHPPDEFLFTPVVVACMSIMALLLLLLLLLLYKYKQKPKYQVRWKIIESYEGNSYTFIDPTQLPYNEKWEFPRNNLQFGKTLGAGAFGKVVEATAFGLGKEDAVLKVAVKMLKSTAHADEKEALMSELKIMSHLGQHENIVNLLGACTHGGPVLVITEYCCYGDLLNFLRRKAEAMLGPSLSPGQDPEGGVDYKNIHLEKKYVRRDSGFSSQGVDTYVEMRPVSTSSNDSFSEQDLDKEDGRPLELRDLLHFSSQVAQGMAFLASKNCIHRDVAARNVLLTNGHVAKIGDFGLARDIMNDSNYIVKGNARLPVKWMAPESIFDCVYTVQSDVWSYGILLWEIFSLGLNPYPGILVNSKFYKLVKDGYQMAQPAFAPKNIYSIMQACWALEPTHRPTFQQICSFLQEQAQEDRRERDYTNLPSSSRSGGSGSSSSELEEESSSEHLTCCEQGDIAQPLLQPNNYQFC

[23] = species on record: Rattus norvegicus; settings: Compound concentration 10.0 uM
[24] = biological target: Tyrosine-protein kinase JAK3 (Homo sapiens) (UniProt P52333); settings: Compound concentration 1000.0 nM
[25] = biological target: Microtubule-associated serine/threonine-protein kinase 1 (Homo sapiens) (UniProt Q9Y2H9); settings: Compound concentration 1000.0 nM
[26] = biological target: Tyrosine-protein kinase Fgr (Homo sapiens) (UniProt P09769); settings: Compound concentration 1000.0 nM
[27] = biological target: Inhibitor of nuclear factor kappa-B kinase subunit beta (Homo sapiens) (UniProt O14920); settings: Compound concentration 1000.0 nM
[28] = biological target: Casein kinase II subunit alpha' (Homo sapiens) (UniProt P19784); settings: Compound concentration 1000.0 nM
Chain of Casein kinase II subunit alpha' (Homo sapiens) (P19784 whole entry, looked up): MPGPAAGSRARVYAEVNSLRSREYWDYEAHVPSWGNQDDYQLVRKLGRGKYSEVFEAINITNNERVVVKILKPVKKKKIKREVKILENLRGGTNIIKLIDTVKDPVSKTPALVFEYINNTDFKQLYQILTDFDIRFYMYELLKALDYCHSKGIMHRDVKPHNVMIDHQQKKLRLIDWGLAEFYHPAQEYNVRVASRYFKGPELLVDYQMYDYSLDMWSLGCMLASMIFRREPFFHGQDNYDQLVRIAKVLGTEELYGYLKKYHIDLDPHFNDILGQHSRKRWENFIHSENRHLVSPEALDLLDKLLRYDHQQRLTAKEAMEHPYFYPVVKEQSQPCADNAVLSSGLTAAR

[29] = biological target: Cyclin-dependent kinase 4 (Homo sapiens) (UniProt P11802); settings: Compound concentration 1000.0 nM
[30] = biological target: Activin receptor type-1B (Homo sapiens) (UniProt P36896); settings: Compound concentration 1000.0 nM
[31] = biological target: Serine/threonine-protein kinase ULK3 (Homo sapiens) (UniProt Q6PHR2); settings: Compound concentration 1000.0 nM
[32] = test system: Tyrosine-protein kinase ABL1 (Homo sapiens), P00519 [T315I]; settings: Compound concentration 1000.0 nM
[33] = biological target: Dual specificity mitogen-activated protein kinase kinase 3 (Homo sapiens) (UniProt P46734); settings: Compound concentration 1000.0 nM
Chain of Dual specificity mitogen-activated protein kinase kinase 3 (Homo sapiens) (P46734 whole entry): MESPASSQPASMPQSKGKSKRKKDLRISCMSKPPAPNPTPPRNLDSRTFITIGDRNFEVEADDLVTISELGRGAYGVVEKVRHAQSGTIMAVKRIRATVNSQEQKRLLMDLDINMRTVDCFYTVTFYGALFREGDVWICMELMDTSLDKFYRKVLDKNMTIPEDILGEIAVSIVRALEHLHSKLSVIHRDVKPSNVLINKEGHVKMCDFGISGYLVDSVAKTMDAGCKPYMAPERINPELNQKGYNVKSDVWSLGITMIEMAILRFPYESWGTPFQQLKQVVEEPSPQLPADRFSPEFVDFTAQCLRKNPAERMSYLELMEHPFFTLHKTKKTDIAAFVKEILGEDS

[34] = biological target: ALK tyrosine kinase receptor (Homo sapiens) (UniProt Q9UM73); settings: Compound concentration 1000.0 nM
[35] = biological target: Beta-3 adrenergic receptor (Homo sapiens) (UniProt P13945); settings: Compound concentration 10.0 uM
[36] = biological target: Serine/threonine-protein kinase 24 (Homo sapiens) (UniProt Q9Y6E0); settings: Compound concentration 1000.0 nM
[37] = biological target: Serine/threonine-protein kinase SIK3 (Homo sapiens) (UniProt Q9Y2K2); settings: Compound concentration 1000.0 nM
[38] = biological target: Serine/threonine-protein kinase RIO2 (Homo sapiens) (UniProt Q9BVS4); settings: Compound concentration 1000.0 nM
[39] = test system: Proto-oncogene tyrosine-protein kinase receptor Ret (Homo sapiens), P07949 [M918T]; settings: Compound concentration 1000.0 nM
Chain of Proto-oncogene tyrosine-protein kinase receptor Ret (Homo sapiens), P07949 [M918T] (P07949 whole entry M918T): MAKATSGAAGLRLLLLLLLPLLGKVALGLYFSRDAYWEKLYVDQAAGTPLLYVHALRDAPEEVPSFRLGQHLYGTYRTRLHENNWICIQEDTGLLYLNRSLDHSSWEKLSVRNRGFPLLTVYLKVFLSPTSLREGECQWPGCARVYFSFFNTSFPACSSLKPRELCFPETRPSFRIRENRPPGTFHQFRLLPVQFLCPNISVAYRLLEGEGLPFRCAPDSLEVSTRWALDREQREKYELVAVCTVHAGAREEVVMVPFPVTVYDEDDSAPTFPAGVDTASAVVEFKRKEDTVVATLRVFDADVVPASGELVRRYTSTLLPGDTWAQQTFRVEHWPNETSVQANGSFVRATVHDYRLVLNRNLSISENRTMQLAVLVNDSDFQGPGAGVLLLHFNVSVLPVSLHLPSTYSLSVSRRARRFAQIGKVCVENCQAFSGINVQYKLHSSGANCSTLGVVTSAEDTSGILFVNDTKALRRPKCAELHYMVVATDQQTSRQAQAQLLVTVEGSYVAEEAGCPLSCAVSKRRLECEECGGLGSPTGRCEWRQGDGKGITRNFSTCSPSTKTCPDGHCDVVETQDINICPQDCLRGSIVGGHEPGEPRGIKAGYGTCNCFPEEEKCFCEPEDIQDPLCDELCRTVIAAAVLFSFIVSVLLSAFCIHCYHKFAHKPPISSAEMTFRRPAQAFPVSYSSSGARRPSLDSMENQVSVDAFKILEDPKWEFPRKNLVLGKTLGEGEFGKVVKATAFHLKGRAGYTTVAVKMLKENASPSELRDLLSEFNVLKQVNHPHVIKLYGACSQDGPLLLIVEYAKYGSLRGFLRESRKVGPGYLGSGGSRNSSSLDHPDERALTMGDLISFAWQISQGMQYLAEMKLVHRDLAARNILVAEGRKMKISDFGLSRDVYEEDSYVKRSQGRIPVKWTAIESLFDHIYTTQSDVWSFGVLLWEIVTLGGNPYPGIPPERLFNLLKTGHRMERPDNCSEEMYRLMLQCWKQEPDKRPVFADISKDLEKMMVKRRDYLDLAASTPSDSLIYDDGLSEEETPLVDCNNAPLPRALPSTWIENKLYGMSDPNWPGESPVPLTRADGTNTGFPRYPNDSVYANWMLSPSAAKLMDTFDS

SMILES	residual activity [1] [%]	inhibition [2] [%]	residual activity [3] [%]	residual activity [4] [%]	residual activity [5] [%]	residual activity [6] [%]	residual activity [7] [%]	residual activity [8] [%]	inhibition [9] [%]	residual activity [10] [%]	residual activity [11] [%]	residual activity [12] [%]	residual activity [13] [%]	inhibition [14] [%]	inhibition [15] [%]	residual activity [16] [%]	residual activity [17] [%]	residual activity [18] [%]	residual activity [19] [%]	residual activity [20] [%]	also measured
NS(=O)(=O)c1cc(NC(=O)C2(c3ccccc3Cl)CC2)ccc1Oc1cccc(Cl)c1 [BAY-207]	74	14.7	94	89	90	81	87	100	2.03	100	61	100	100	19.5	43.4	66	74	99	88	100	residual activity [21]: 100%; residual activity [22]: 85%; inhibition [23]: 87.5%; residual activity [24]: 64%; residual activity [25]: 100%; residual activity [26]: 54%; residual activity [27]: 70%; residual activity [28]: 100%; residual activity [29]: 70%; residual activity [30]: 89%; residual activity [31]: 83%; residual activity [32]: 82%; residual activity [33]: 84%; residual activity [34]: 85%; inhibition [35]: -5.77%; residual activity [36]: 93%; residual activity [37]: 87%; residual activity [38]: 89%; residual activity [39]: 71%
NS(=O)(=O)c1cc(NC(=O)Cc2ccccc2)ccc1Oc1cccc(Cl)c1 [BAY-1797]	61	16.7	93	77	89	91	94	82	-8.33	97	100	87	88	55.4	56.6	91	78	100	57	95	residual activity [21]: 100%; residual activity [22]: 87%; inhibition [23]: 5.06%; residual activity [24]: 96%; residual activity [25]: 85%; residual activity [26]: 100%; residual activity [27]: 91%; residual activity [28]: 100%; residual activity [29]: 71%; residual activity [30]: 98%; residual activity [31]: 74%; residual activity [32]: 61%; residual activity [33]: 83%; residual activity [34]: 100%; inhibition [35]: 46.3%; residual activity [36]: 82%; residual activity [37]: 87%; residual activity [38]: 100%; residual activity [39]: 83%
